ChEMBL document CHEMBL1201862, “PubChem BioAssay data set” (2004)
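96-well plates; 48 h exposure; 5 concentrations. Endpoints by linear interpolation between flanking doses. Not reached: highest tested concentration assigned. The concentration for 50% growth inhibition is given as GI50.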 Calls of active or inactive are those of the source. No stated cut-off is given here; in the data, active = GI50 up to about 1.1 µM and inactive = higher. Where a SMILES comes first, the peptide text is derived from it. The star is where a group is joined. Boc = CC(C)(C)OC(=O)*; OBn = c1ccc(CO*)cc1

Legend:
Assay in all cases: inhibition of tumour cell growth, NCI panel, 48 h
[1] = tested on: HT-29
[2] = tested on: COLO 205
[3] = tested on: UACC-257
[4] = tested on: LOX IMVI
[5] = tested on: MOLT-4
[6] = tested on: MDA-N
[7] = tested on: A549
[8] = tested on: BT-549
[9] = tested on: 786-0
[10] = tested on: DU-145
[11] = tested on: NCI/ADR-RES
[12] = tested on: NCI-H226
[13] = tested on: M14
[14] = tested on: SR
[15] = tested on: SF-268
[16] = tested on: NCI-H522
[17] = tested on: CAKI-1
[18] = tested on: EKVX
[19] = tested on: NCI-H460

| SMILES | GI50 [1] | GI50 [2] | GI50 [3] | GI50 [4] | GI50 [5] | GI50 [6] | GI50 [7] | GI50 [8] | GI50 [9] | GI50 [10] | GI50 [11] | GI50 [12] | GI50 [13] | GI50 [14] | GI50 [15] | GI50 [16] | GI50 [17] | GI50 [18] | GI50 [19] |
| --- | --- | --- | --- | --- | --- | --- | --- | --- | --- | --- | --- | --- | --- | --- | --- | --- | --- | --- | --- |
| O=C(NCCCCCN1CCC2(CCCCC2)CC1)C(C1CCCCC1)C1CCCCC1 | 1.97 µM (inactive) | 1.45 µM (inactive) | 1.82 µM (inactive) | 2.7 µM (inactive) | 1.9 µM (inactive) | 1.84 µM (inactive) | 5.94 µM (inactive) | 5.87 µM (inactive) | 5.08 µM (inactive) | 4.6 µM (inactive) | 3.18 µM (inactive) | 3.67 µM (inactive) | 1.68 µM (inactive) | 1.57 µM (inactive) | 5.35 µM (inactive) | 4.17 µM (inactive) | 4.1 µM (inactive) | 3.6 µM (inactive) | 2.45 µM (inactive) |
| Cn1c2c(c3ccccc31)CC1c3c(c4ccccc4n3C)CC21 (configuration not stated) | > 100 µM (inactive) | > 100 µM (inactive) | > 100 µM (inactive) | > 100 µM (inactive) | > 100 µM (inactive) | > 100 µM (inactive) | > 100 µM (inactive) | > 100 µM (inactive) | > 100 µM (inactive) | > 100 µM (inactive) | > 100 µM (inactive) | > 100 µM (inactive) | > 100 µM (inactive) | > 100 µM (inactive) | > 100 µM (inactive) | > 100 µM (inactive) | > 100 µM (inactive) | > 100 µM (inactive) | > 100 µM (inactive) |
| Cc1cc[n+]2c(c1)-c1cc(C)cc[n+]1CC2 | 34.7 µM (inactive) | 22.6 µM (inactive) | > 100 µM (inactive) | > 100 µM (inactive) | > 100 µM (inactive) | > 100 µM (inactive) | > 100 µM (inactive) | > 100 µM (inactive) | > 100 µM (inactive) | > 100 µM (inactive) | > 100 µM (inactive) | > 100 µM (inactive) | > 100 µM (inactive) | > 100 µM (inactive) | > 100 µM (inactive) | 29.4 µM (inactive) | > 100 µM (inactive) | > 100 µM (inactive) | > 100 µM (inactive) |
| Cc1cc(S(=O)(=O)Nc2cc(N)n[nH]2)c(SCc2nc(N)nc(N(C)C)n2)cc1Cl | > 10 µM (inactive) | > 10 µM (inactive) | > 10 µM (inactive) | > 10 µM (inactive) | > 10 µM (inactive) | > 10 µM (inactive) | > 10 µM (inactive) | > 10 µM (inactive) | > 10 µM (inactive) | > 10 µM (inactive) | > 10 µM (inactive) | > 10 µM (inactive) | > 10 µM (inactive) | > 10 µM (inactive) | > 10 µM (inactive) | > 10 µM (inactive) | > 10 µM (inactive) | > 10 µM (inactive) | > 10 µM (inactive) |
| Cc1cccc2c1c(=O)c1c(O)cc(O)cc1n2C | 72.3 µM (inactive) | 30 µM (inactive) | > 100 µM (inactive) | 82 µM (inactive) | 70.5 µM (inactive) | > 100 µM (inactive) | > 100 µM (inactive) | > 100 µM (inactive) | > 100 µM (inactive) | > 100 µM (inactive) | > 100 µM (inactive) | > 100 µM (inactive) | 55 µM (inactive) | > 100 µM (inactive) | > 100 µM (inactive) | 97.7 µM (inactive) | > 100 µM (inactive) | 85.1 µM (inactive) | > 100 µM (inactive) |
| COn1cc(C=O)c2ccccc21 | > 56.6 µM (inactive) | > 100 µM (inactive) | > 78.9 µM (inactive) | > 65.2 µM (inactive) | 33.2 µM (inactive) | 23.6 µM (inactive) | > 67 µM (inactive) | > 100 µM (inactive) | > 67 µM (inactive) | > 82 µM (inactive) | > 70.8 µM (inactive) | > 20.2 µM (inactive) | > 61.8 µM (inactive) | 26.4 µM (inactive) | 68.4 µM (inactive) | 38.6 µM (inactive) | 28.7 µM (inactive) | 23.7 µM (inactive) | 35.1 µM (inactive) |
| CC(C)Cn1cnc2c(SCc3ccccn3)nc(N)nc21 | > 100 µM (inactive) | > 100 µM (inactive) | > 100 µM (inactive) | > 100 µM (inactive) |  | > 100 µM (inactive) | > 100 µM (inactive) | > 100 µM (inactive) | > 100 µM (inactive) | > 100 µM (inactive) | > 100 µM (inactive) | > 100 µM (inactive) | > 100 µM (inactive) | > 100 µM (inactive) | > 100 µM (inactive) | > 100 µM (inactive) | > 100 µM (inactive) | > 100 µM (inactive) | > 100 µM (inactive) |
| CC(=O)O[C@@]12[C@@H]3O[C@@]4(O)C[C@]5(C)[C@H]6C[C@@](C(C)C)(O[C@H]5c5ccoc5)O[C@H]1[C@]6(C4)O[C@]2(O)C(C)=CC3(C)C | > 100 µM (inactive) | > 100 µM (inactive) | > 100 µM (inactive) | > 100 µM (inactive) | > 100 µM (inactive) | > 100 µM (inactive) | > 100 µM (inactive) | > 100 µM (inactive) | 64.4 µM (inactive) | > 100 µM (inactive) | > 100 µM (inactive) | > 100 µM (inactive) | > 100 µM (inactive) | > 100 µM (inactive) | > 100 µM (inactive) | 78.5 µM (inactive) | > 100 µM (inactive) | > 100 µM (inactive) |  |
| O=S1(=O)c2ccccc2C(Nc2ccccc2)N1c1ccccc1 (configuration not stated) | > 100 µM (inactive) |  | > 100 µM (inactive) | > 100 µM (inactive) | 50.4 µM (inactive) | > 100 µM (inactive) | 56.8 µM (inactive) | 58.9 µM (inactive) | > 100 µM (inactive) | > 100 µM (inactive) | 45 µM (inactive) | > 100 µM (inactive) |  | 83.8 µM (inactive) | > 100 µM (inactive) | 24.7 µM (inactive) | > 100 µM (inactive) | > 100 µM (inactive) | 72.9 µM (inactive) |
| CN(C(=O)[C@H](NC(=O)OCc1ccccc1)c1ccccc1)C1CCCCC1N1CCCC1 (some centres not stated) | 38.1 µM (inactive) | 87.9 µM (inactive) | 26.1 µM (inactive) | 77.6 µM (inactive) | 23.7 µM (inactive) | > 100 µM (inactive) | > 100 µM (inactive) | > 100 µM (inactive) | 95.1 µM (inactive) | > 100 µM (inactive) | > 100 µM (inactive) | 0.55 µM (active) | 23.4 µM (inactive) | 20.7 µM (inactive) | 62.4 µM (inactive) | 43.9 µM (inactive) | > 100 µM (inactive) | > 100 µM (inactive) | 40.6 µM (inactive) |
| CC(NC(=O)C(Cc1ccccc1)NC(=O)C(Cc1ccccc1)NC(=O)OC(C)(C)C)C(=O)OCc1ccccc1 (stereo not drawn) (Boc-Phe-Phe-Ala-OBn; configuration not given here) | 75.9 µM (inactive) | 65.3 µM (inactive) | > 100 µM (inactive) | > 100 µM (inactive) | 54.7 µM (inactive) | > 100 µM (inactive) | > 100 µM (inactive) | > 100 µM (inactive) | > 100 µM (inactive) | > 100 µM (inactive) | > 100 µM (inactive) | 6.05 µM (inactive) | 48.4 µM (inactive) | 28.6 µM (inactive) | > 100 µM (inactive) | 68.1 µM (inactive) | > 10 µM (inactive) | > 100 µM (inactive) | > 100 µM (inactive) |
| CC(=O)Oc1ccc2c3c1O[C@H]1[C@H](O)CC[C@@]4(O)[C@@H](C2)N(C)CC[C@]314 | > 100 µM (inactive) | > 100 µM (inactive) | > 100 µM (inactive) | > 100 µM (inactive) | > 100 µM (inactive) | > 100 µM (inactive) | > 100 µM (inactive) | > 100 µM (inactive) | > 100 µM (inactive) | > 100 µM (inactive) | > 100 µM (inactive) | > 100 µM (inactive) | > 100 µM (inactive) | > 100 µM (inactive) | > 100 µM (inactive) | > 100 µM (inactive) | > 100 µM (inactive) | > 100 µM (inactive) |  |
| CC(=N\N=C\c1ccccn1)/C(C)=N/N=C(C)/C(C)=N/N=C/c1ccccn1 | > 100 µM (inactive) | > 100 µM (inactive) | > 100 µM (inactive) | > 100 µM (inactive) |  | > 100 µM (inactive) | > 100 µM (inactive) | > 100 µM (inactive) | > 100 µM (inactive) | > 100 µM (inactive) | > 100 µM (inactive) | > 100 µM (inactive) | > 100 µM (inactive) | > 100 µM (inactive) | > 100 µM (inactive) | > 100 µM (inactive) | > 100 µM (inactive) | > 100 µM (inactive) | > 100 µM (inactive) |
| Cc1c2cccc-2c(OCCOC(=O)n2ccnc2)cc2c1[nH]c1ccccc12 | 2.27 µM (inactive) |  | 2.73 µM (inactive) | 1.89 µM (inactive) | 4.12 µM (inactive) | 4.8 µM (inactive) | 3.42 µM (inactive) | 2.89 µM (inactive) | 3.87 µM (inactive) | 6.24 µM (inactive) | 2.82 µM (inactive) | 2.39 µM (inactive) | 3.46 µM (inactive) | 3.31 µM (inactive) | 2.6 µM (inactive) | 2.14 µM (inactive) | 3.66 µM (inactive) | 1.04 µM (active) | 3.9 µM (inactive) |
| CC1(C)C(=O)/C(=C/c2ccccc2)C(C)(C)C1(C)C | 40.1 µM (inactive) | > 100 µM (inactive) | > 100 µM (inactive) | 35.4 µM (inactive) | 56.2 µM (inactive) | 39.1 µM (inactive) | 57.5 µM (inactive) | 36.1 µM (inactive) | > 81.8 µM (inactive) | 40.7 µM (inactive) | > 90.6 µM (inactive) | > 100 µM (inactive) | 85.1 µM (inactive) | 37 µM (inactive) |  | 63.2 µM (inactive) | 49.1 µM (inactive) | > 58.5 µM (inactive) | 62.7 µM (inactive) |
